Measured values: US6093702A, “Mixtures of dideoxy-nucleosides and hydroxycarbamide for inhibiting retroviral spread” (The United States of America as represented by the …, priority 1995, dated 2000)
“Also recorded” adds a separate entry of the source. Where two headings read alike, the source gives them in different places.

Columns and labels:
HIV-1 virus strain IIIB = experiment: microbe, parasite or virus in culture; conditions: for inhibition at 5 µM: read-out: inhibition of viral replication; for effect on viral replication (in words): non-activated CD4+ lymphocytes, HC 0.05 or 0.15 mM, ddI or AZT 5 μM; for p24-HIV production in culture supernatant: day 15, infected control 86215
Description: (§1) Non-activated CD4^+ cells were infected, then treated for 7 days by HC, ddI or the combination of the two, then activated by PHA and IL-2 (PHA-IL-2).
(§2) The CD4^+ lymphocytes were purified from PBMC with immunomagnetic beads (Dynabeads* M450). These cells were infected with the HIV-1 virus strain IIIB at a multiplicity of infection of 5 000 tissue culture infectious dose (TCID) per 10^6 cells (241 pg/ml p24 antigen equivalent of virus). After 2 hours of virus-cell contact, the cells were washed twice and placed in the culture medium RPMI 1640 (supplemented with 10% fetal calf serum (FCS), 2 mM glutamine, penicillin 100 IU/ml and Streptomycin 100 μg/ml) at a density of 1.3×10^6 cells/ml. ddI was immediately added at a concentration of 5 μM and HC at concentrations of 0.05 mM and […]. The drugs and culture medium were partially renewed (50%) on day 4, maintaining the same concentration of each. On day 7, in order to remove the drugs, the cells were washed twice and put back in culture in the presence of PHA at a concentration of 1 μg/ml and recombinant IL-2 at a concentration of 20 U/ml. This culture was maintained until day 25, with partial renewal (50%) of the medium twice a week. The number of viable cells was quantified by a tetrazolium-based colorimetric 3-(4,5-dimethylthiazol-2-yl)-2,5-diphenyltetrazolium bromide (MTT) method (Pauwels, R. et al J. Virol. Methods, 20, 309-321, (1988)), and activity is expressed as a percentage of the signal in the drug-free and virus-free control. Viral replication was quantified by measuring the HIV-1 p24 antigen by ELISA using the Dupont de Nemours kit.
In FIG. 2, there is shown a study of the activity of the combination of AZT and HC on non-activated CD4^+ lymphocytes infected with the HIV virus. The CD4^+ lymphocytes were purified from PBMC with immunomagnetic beads (Dynabeads* M450). These cells were infected with the HIV-1 virus strain IIIB at a multiplicity of infection of 5 000 tissue culture infectious dose (TCID) per 10^6 cells (241 pg/ml p24 antigen equivalent of virus). After 2 hours of virus-cell contact, the cells were washed twice and placed in the culture medium RPMI 1640 (supplemented with 10% FCS, 2 mM glutamine, penicillin 100 IU/ml and streptomycin 100 μg/ml) at a density of 1.3×10^6 cells/ml. AZT was immediately added at a concentration of 5 μM and HC at a concentration of 0.05 mM and 0.15 mM. The drugs and culture medium were partially renewed (50%) on day 4, maintaining the same concentration of each. On day 7, in order to remove the drugs, the cells were washed twice and put back in culture in the presence of PHA at a concentration of 1 μg/ml and recombinant IL-2 at a concentration of 20 U/ml. This culture was maintained until day 25, with partial renewal (50%) of the medium twice a week. The number of viable cells was quantified by a tetrazolium-based colorimetric 3-(4,5-dimethylthiazol-2-yl)-2,5-diphenyltetrazolium bromide (MTT) method (Pauwels, R. et al J. Virol. Methds, 20,309-321, (1988)), and activity is expressed as a percentage of the signal in the drug-free and virus-free control. Viral replication was quantified by measuring the HIV-1 p24 antigen by ELISA using the Dupont de Nemours kit.

[1] = test system: PBMC preactivated with PHA and IL-2; experiment: Inhibitory concentration 50% in preactivated PBMC by MTT test; type: cell-based; conditions: 72 h, read-out: IC50 (inhibitory concentration 50%), after 3 days
Description: The PBMC were purified from peripheral blood by discontinous Ficoll density gradient centrifugation. The cells were grown at a density of 1.3×10^6 cells/ml in RPMI 1640 medium supplemented with 10% FCS, 2 mM glutamine, penicillin 100 IU/ml and streptomycin 100 μg/ml, in the presence of PHA at a concentration of 1 μg/ml and recombinant IL-2 at 20 U/ml for 72 hours, then infected by HIV-1 strain IIIB at a multiplicity of 5000 TCID for 10^6 cells (241 pg/ml p24 antigen equivalent of virus). In FIG. 3, the first time point represent viral infection of the cells. After 2 hours of virus-cell contact, the cells were washed twice and placed in the culture medium containing IL-2 but without PHA in the presence of ddI at a concentration of 10 μM and of HC at a concentration of 0.15 mM. These cultures were maintained for 20 days, with partial renewal of the medium and of the two drugs twice a week maintaining the initial concentration. […] The number of viable cells were quantified by a tetrazolium-based colorimetric 3-(4,5-dimethylthiazol-2-yl)-2,5-diphenyltetrazolium bromide (MTT) method (Pauwels, R. et al J. Virol. Methods, 20:309-321, (1988)), and activity is expressed as a percentage of the signal in the drug-free and virus-free control. Viral replication was quantified by measuring the HIV-1 p24 antigen by ELISA using the Dupont de Nemours kit.

[2] = Cytotoxicity in non-activated lymphocytes (PBLs) pretreated 24 h and then activated 48 h; type: cell-based; conditions: human, HC 1 mM, 24 h pretreatment, then PHA and IL-2 for 48 h in presence of HC, read-out: PBLs dying due to the drug's toxicity
Excerpt: Under such conditions, greater than 70% of the PBLs die due to the drug's toxicity.

HIV-1 strain IIIB = experiment: microbe, parasite or virus in culture; conditions: for p24 production: day 6
Description: The PBMC were purified from peripheral blood by discontinous Ficoll density gradient centrifugation. The cells were grown at a density of 1.3×10^6 cells/ml in RPMI 1640 medium supplemented with 10% FCS, 2 mM glutamine, penicillin 100 IU/ml and streptomycin 100 μg/ml, in the presence of PHA at a concentration of 1 μg/ml and recombinant IL-2 at 20 U/ml for 72 hours, then infected by HIV-1 strain IIIB at a multiplicity of 5000 TCID for 10^6 cells (241 pg/ml p24 antigen equivalent of virus). In FIG. 3, the first time point represent viral infection of the cells. After 2 hours of virus-cell contact, the cells were washed twice and placed in the culture medium containing IL-2 but without PHA in the presence of ddI at a concentration of 10 μM and of HC at a concentration of 0.15 mM. These cultures were maintained for 20 days, with partial renewal of the medium and of the two drugs twice a week maintaining the initial concentration. At day 6 and day 14 fresh uninfected donor PBMC were added (5×10^5 /ml) to replenish aged cultures (Nature, 361:1993, 650-654). The number of viable cells were quantified by a tetrazolium-based colorimetric 3-(4,5-dimethylthiazol-2-yl)-2,5-diphenyltetrazolium bromide (MTT) method (Pauwels, R. et al J. Virol. Methods, 20:309-321, (1988)), and activity is expressed as a percentage of the signal in the drug-free and virus-free control. Viral replication was quantified by measuring the HIV-1 p24 antigen by ELISA using the Dupont de Nemours kit.

[3] = test system: dNTP pools in PHA-stimulated PBLs; conditions: HC 1 mM, cited from earlier work
[4] = Cell viability of preactivated PBMC by Trypan Blue exclusion; type: cell-based; conditions: human, HC 0.15 mM, 2% Trypan Blue exclusion, read-out: cellular viability
in vitro = conditions: human, cd4+ lymphocytes
Description: as §1
as §2, with “This culture was maintained until day 25, with partial renewal (50%) of the medium twice a week.” left out
(§3) In FIG. 2, there is shown a study of the activity of the combination of AZT and HC on non-activated CD4^+ lymphocytes infected with the HIV virus. […] The number of viable cells was quantified by a tetrazolium-based colorimetric 3-(4,5-dimethylthiazol-2-yl)-2,5-diphenyltetrazolium bromide (MTT) method (Pauwels, R. et al J. Virol. Methds, 20,309-321, (1988)), and activity is expressed as a percentage of the signal in the drug-free and virus-free control. Viral replication was quantified by measuring the HIV-1 p24 antigen by ELISA using the Dupont de Nemours kit.

[5] = test system: non-activated CD4+ lymphocytes; experiment: in vitro; conditions: after PHA-IL-2 stimulation
Description: as §1
as §2, with “This culture was maintained until day 25, with partial renewal (50%) of the medium twice a week.” left out
as §3

[6] = Human immunodeficiency virus 1, IIIB, Lymphocyte
[7] = single drug 5 μM, infected control 86215 pg p24/ml
[8] = Human immunodeficiency virus 1, IIIB, PBMC, 144 h, read-out: inhibition of viral replication

Row | SMILES | log reduction at 5 µM (HIV-1 virus strain IIIB; Human immunodeficiency virus 1, IIIB, Lymphocyte, read-out: antiviral activity (log reduction)) | inhibition at 5 µM (HIV-1 virus strain IIIB; [6]) [%] | effect on viral replication (in words) (HIV-1 virus strain IIIB) | p24 production (HIV-1 virus strain IIIB; [7]) [pg p24/ml] | IC50 [1] [µM] | cytotoxicity at 72 h, 1000 µM [2] [%] | p24 production (HIV-1 strain IIIB; HC alone 0.15 mM) [pg p24/ml] | inhibition at 150 µM (HIV-1 strain IIIB; [8]) [%] | effect on dNTP levels and DNA synthesis rate (in words) ([3]; listed as hydroxyurea) | effect on dNTP levels and DNA synthesis rate (in words) [3] | p24-HIV production in culture supernatant (HIV-1 virus strain IIIB; HC 0.05 mM) | p24-HIV production in culture supernatant (HIV-1 virus strain IIIB; HC 0.15 mM) | viability at 72 h, 150 µM [4] [%] | cytotoxicity at 50 µM (in vitro) [%] | cytotoxicity at 150 µM (in vitro) [%] | inhibition at 10 µM (HIV-1 strain IIIB; [8]) [%] | p24 production (HIV-1 strain IIIB; ddI alone 10 μM) [pg p24/ml] | p24 production (HIV-1 virus strain IIIB; ddI 5 μM alone, day 25) [pg p24/ml] | proliferative cellular response / cytopathic effect (in words) [5]
1 | Cc1cn([C@H]2C[C@H](N=[N+]=[N-])[C@@H](CO)O2)c(=O)[nH]c1=O [AZT, 3'-azido-2',3'-dideoxythymidine] | < 1 | 88.4 | only slight antiviral activity; also recorded: only a slight effect on viral replication | 10300 |  |  |  |  |  |  |  |  |  |  |  |  |  |  | 
2 | NC(=O)NO [HC, hydroxycarbamide] |  |  | incapable of preventing the production of infectious virions |  | 150 | > 70 | 12500 | 82.6 | decreases dNTP levels and the DNA synthesis rate to levels comparable to quiescent PBLs; also recorded: decreases the dNTP levels and the DNA synthesis rate to levels comparable to quiescent PBLs | partially reduces the various dNTP pools studied | 75460 pg of p24/ml | 82005 pg of p24/ml | > 90 | > 50 | > 50 |  |  |  | 
3 | OC[C@@H]1CC[C@H](n2cnc3c(O)ncnc32)O1 [ddI, 2',3'-dideoxy-inosine] |  | 99.1 | reached substantially the same level of p24 production as the infected control; also recorded: only temporarily and partially inhibited | 766 |  |  |  |  |  |  |  |  |  |  |  | 97.1 | 2071 | 101080 | cytopathic effect was observed later
